From patent US20240400698A1, “ANTI-CHEMOKIN LIKE RECEPTOR 1 ANTIBODIES AND THEIR THERAPEUTIC APPLICATIONS” (OSE IMMUNOTHERAPEUTICS, priority 2018, published 2024)

B1: 1G1: anti-CMKLR1 chimeric antibody variant, LL on positions 1 and 2 of VH-CDR3 (SEQ ID No. 8) (antibody, V domains shown)
VH: EVQLVASGGGLVQPGGSLKLSCAASGFTFSSYGMSWVRQTPDRRLELVATINRYGGSTYYPDSVKGRFTISRDNAKNTLYLQMSSLKSEDTAMYYCPRLLYYGNEGDSWGQGTTLTVSS
VL: QIVLTQSPAIMSASPGEKVTMTCSASSSVSFMHWYQQKSGTSPKRWIYDTTKLTSGVPARFSGSGSGTFYSLTISSMEAEDAATYYCQQWNSKPPLTFGPGTKLELKR

Experiments:
Mice dendritic cells = test: Maturation and differentiation of mice bone marrow derived dendritic cells, activation markers and viability by FACS; assay type: cell-based
Description: FIG. 1. Effect of the anti-CMKLR1 variants 1G1, 2G1, 3G1 and 4G1 chimeric antibodies on the DCs maturation and differentiation. Mice dendritic cells were incubated during maturation phase (24 h or 48 h) followed by a differentiation phase with excipient or RvE1 or anti-CMKLR1 antibodies variants (mutations on positions 1 and 2 of SEQ ID No. 8, corresponding to the VH-CDR3: 1G1 (LL), 2G1 (LI), 3G1 (IL) or 4G1 (II) or isotype controls (hIgG1 or mIgG)). Cells were then stained for FACS analysis with cell marker antibodies: A. CD80-PE; B. CD86-FITC; C. CD103-PerCPCy5.5; D. I/Ab-APC. Mean of Fluorescence was determined in each condition. E and F represent the viability of the cells measured by FACS using LIVE/DEAD® kit from Life Technologies in each condition after 24 or 48 hours of maturation respectively.
FIG. 17. Study of the myeloid cell activation markers after CMKLR1 pathway activation. Dendritic cells incubated in excipient, RvE1, 2G1 or isotype control (hIgG1) were then stained for FACS analysis with marker antibodies: A. CD80-PE. B. CD86-FITC. C. CD103-PerCPCy5.5. D. CD40-PeCy7. E. I/Ab-APC. Mean of Fluorescence was determined in each condition.
Bone marrow cells were harvested and cultured in RPMI medium supplemented with 10% FBS, glutamine and antibiotics and the dendritic cell differentiation was induced by GM-CSF at 20 ng/ml for 7 days. Then, immature dendritic cells (iDC) were collected and cultured for 24 hours with LPS (100 ng/ml) to induce the maturation from iDC to mDC. Treatments were added during differentiation and maturation at 2 μg/ml.
Dendritic cells were resuspended in PBS-FBS-EDTA and incubated with live and dead (LIVE/DEAD® Fixable Dead Cell Stains Yellow-Life Technologies) for 30 minutes on ice. Staining of CD11c-BV711, CD11b-APCCy7, I/Ab-APC, CD103-PerCPCy5.5, CCR7-V450, CD40-PeCy7, CD80-PE, CD86-FITC (all provided by BD Pharmingen) were performed.

[1] = test system: C57BI/6 male mice, colitis induced by TNBS; test: Acute inflammatory colitis model induced by TNBS; assay type: in vivo; conditions: FIG. 3, 2G1 10 μg, RvE1 1 μg per mouse i.p.
Description: FIG. 3. […] Mice received 200 μL of the haptenating agent TNBS at 5% in 50% ethanol on day 0 and then were injected with isotype control hIgG1 (10 μg per mouse) (x), RvE1 (1 μg per mouse) daily (•), or 2G1 antibody (10 μg per mouse) three times ( ) for 5 days, or non-treated (wild type animals) (▾). Mice were sacrificed colon length was measured in each condition.
Colitis was induced in 8-10 weeks-old-C57BI/6 male mice by intrarectal injection of 200 μL of the haptenating agent TNBS at 5% in 50% ethanol on day 0. Treatments were injected intra-peritoneally; RvE1 (1 μg per mouse) daily for three days, or 2G1 antibody (10 μg per mouse) twice for 3 days. Colitis follow-up consisting of body weight and stool score (0: normal stool; 4: blood in stool) parameters were performed daily (data not represented). When mice are euthanized, colon length representing the pathology severity was measured.

[2] = test system: male C57BI/6 mice, Aldara-induced psoriasis; test: Imiquimod (Aldara)-induced psoriasis-like skin inflammation; assay type: in vivo; conditions: 1 μg per mouse i.p. daily, vs control molecule
Description: FIG. 6. Effect of Resolvin E1 on an autoimmune disease such as mice psoriasis model. Aldara treated mice for 6 consecutive days were injected intra-peritoneally with: RvE1 (1 μg) (•) and PBS daily, and isotype control antibody (10 μg) (x) at day 0, 2 and 4. A. Ear thicknesses and B. skin thicknesses were measured daily until the recovery.
Aldara@ cream which is known to induce psoriasis in mice was used on male C57BI/6 mice (8-10-week old). Mice received a daily topical dose of Aldara on the shaved back and the left ear for 6 consecutive days. Treatments were injected intra-peritoneally: RvE1 (1 μg per mouse) and PBS daily. Ear (FIG. 6A) and back (FIG. 6B) thicknesses were measured daily until the recovery.

[3] = test system: mice, peritonitis induced by Zymosan A; test: Zymosan A peritonitis model (sepsis); assay type: in vivo; conditions: preventive injection, vs isotype control
Description: FIG. 7. […] Preventive injection of anti-CMKLR1 was performed before Zymosan A injection (1 mg per mouse in 1 mL): RvE1 (1 μg per mouse) (•), 2G1 antibody (10 μg per mouse) ( ) or isotype control antibody (x). A. PMN numbered during the first 50 hours after Zymosan A injection. B. Macrophages numbered during the first 50 hours after Zymosan A injection. C. Resolution index.
Common peritonitis is induced by intraperitoneal injection of Zymosan A® (1 mg per mouse in 1 mL). Preventive injection of anti-CMKLR1 was performed 5 minutes before Zymosan A injection: RvE1 (1 μg per mouse), 2G1 antibody (10 μg per mouse). Murine peritoneal polymorphonuclear neutrophil (PMN) and macrophages were collected at 2-4-8-16-24 and 48 h after Zymosan A injection and numbered by flow cytometry analysis to determinate the resolution index (Bannenberg et al., 2005).

[4] = test system: mice M1 or M2 macrophages; test: Cytokine secretion by mice M1 or M2 macrophages (ELISA), FIG. 15; assay type: cell-based; conditions: FIG. 15; IL10, CCL17, IL12p40
Description: FIG. 15. Study of the inflammatory cytokine secretion by human macrophages during CMKLR1 activation. After differentiation of human macrophages M1 or M2, cells were incubated in presence of medium, isotype control, anti-CMKLR1 antibodies (H6 and BZ194), C15 peptides, 2G1 anti-CMKLR1 antibody or RvE1. Secretion of IL10, CCL17 and IL12p40 were assessed by ELISA. Cytokines secretion is measured in the supernatant by using an ELISA kit from BD. Supernatant were diluted at 1/10 for IL10 cytokines, 1/50 for CCL17 cytokines and 1/100 for IL12p40 cytokines. A. IL10 cytokine secretion by M2 cells. B. CCL17 cytokine secretion by M2 cells. C. represents IL 12 cytokine secretion by M1 cells.
Bone marrow cells were harvested and cultured in the RPMI medium supplemented with 10% FBS, glutamine and antibiotics containing macrophages colony-stimulating factor (M-CSF) at 100 ng/ml for 5 days inducing the macrophages differentiation. The macrophages were harvested and cultured for 2 days with either IFNg (20 ng/ml) and LPS (100 ng/ml) inducing the M1 polarization or with IL-4 (20 ng/ml) inducing the M2 polarization. Treatments were added during macrophage polarization at 2 μg/ml.
After differentiation of mice M1 or M2 as explain above, cells were incubated in presence of medium, isotype control, anti-CMKLR1 antibodies: clones H6 and BZ194, C15 peptides, 2G1 the anti-CMKLR1 antibody of interest or RvE1 were used. Then the secretion of IL10, CCL17 and IL12p40 was assessed by ELISA. Cytokines secretion was measured in the supernatant using an ELISA kit from BD. Supernatants were diluted at 1/10 for IL10 cytokines, 1/50 for CCL17 cytokines and 1/100 for IL12p40 cytokines.
Cytokines secretion was detected by ELISA according to the BD manufacturer instructions. Briefly, supernatants were diluted in the appropriate buffer and incubated for 2 hours after overnight coating with capture antibody and saturation. […] TMB supplied by BD Bioscience was used as substrate and colorimetric reaction was read with TECAN.

Molecule	expression of CD80, CD86, CD103, CD40 and IAb (DC activation markers) (Mice dendritic cells; FIG. 17, FACS, compared to the excipient or isotype control)	colon length [1]	thickness of the ears ([2]; FIG. 6A)	thickness of the skin (back) ([2]; FIG. 6B)	PMNs number ([3]; FIG. 7A)	macrophages number ([3]; FIG. 7B)	resolution index ([3]; FIG. 7C)	inflammatory cytokines secreted by M1 or M2 macrophages, result compared with that of 2G1 [4]	DCs activation and/or maturation towards a pro-inflammatory pathway (Mice dendritic cells; FIG. 1, mice dendritic cells, maturation 24 h or 48 h)	viability of cells (Mice dendritic cells; FIGS. 1E and 1F, LIVE/DEAD kit, after 24 or 48 hours of maturation, compared with other antibodies, C7 or Resolvin E1)
CC[C@@H](O)/C=C/C=C\C[C@@H](O)/C=C/C=C/C=C\[C@@H](O)CCCC(=O)O [RvE1, Resolvin E1, reference compound]	strong decrease	the same as normal animal (wt)	lower thickness	lower thickness	slightly less	slightly less	better resolution index	different		
B1									inhibit DCs activation and/or maturation in a stronger manner than other synthetized antibodies (3G1 and 4G1)	enhanced
